# From US6737383B1, “Herbicidal oxadiazolidines” (priority 1999, dated 2004)
# Experiments:
# wheat = test: Test B pre/postemergence wheat; format: in vivo, Triticum aestivum
# In short: (§1)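 Herbicidal effect was estimated by eye on a ten-point control scale after plants spent twelve to sixteen days in a greenhouse following soil or foliar treatment. Foliar sprays targeted plants at one to four leaves; all doses were formulated in a non-phytotoxic solvent with surfactant.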
# morningglory = test: Test B pre/postemergence morningglory; format: in vivo, Ipomoea hederacea; settings: for Morningglory plant response rating: Postemergence; for Plant response rating, Morningglory: Preemergence
# In short: as §1
# pigweed = test: Test B pre/postemergence pigweed; format: in vivo, Amaranthus retroflexus
# In short: as §1
# purple nutsedge = test: Test B pre/postemergence purple nutsedge; format: in vivo, Cyperus rotundus
# In short: as §1
# rape = test: Test B pre/postemergence rape; format: in vivo, Brassica napus
# In short: as §1
# cocklebur = test: Test B pre/postemergence cocklebur; format: in vivo, Xanthium strumarium; settings: for Cocklebur plant response rating: Postemergence; for Plant response rating, Cocklebur: Preemergence
# In short: as §1
# duck salad = test: Test B flood test duck salad; format: in vivo, Heteranthera limosa
# In short: (§2)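 Read-out is a visual response score from 0 (no effect) to 10 (complete control), assigned by comparison with untreated controls. Treatment was applied at the 2-leaf stage, and plants stayed in the greenhouse for twelve to sixteen days before scoring.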
# sugar beet = test: Test B pre/postemergence sugar beet; format: in vivo, Beta vulgaris
# In short: as §1
# wild oat = test: Test B pre/postemergence wild oat; format: in vivo, Avena fatua
# In short: as §1
# smallflower flatsedge = test: Test B flood test smallflower flatsedge; format: in vivo, Cyperus difformis
# In short: as §2
# soybean = test: Test B pre/postemergence soybean; format: in vivo, Glycine max
# In short: as §1
# bedstraw = test: Test B pre/postemergence bedstraw; format: in vivo, Galium aparine; settings: for Bedstraw plant response rating: Postemergence; for Plant response rating, Bedstraw: Preemergence
# In short: as §1
# blackgrass = test: Test B pre/postemergence blackgrass; format: in vivo, Alopecurus myosuroides
# In short: as §1
# giant foxtail = test: Test B pre/postemergence giant foxtail; format: in vivo, Setaria faberii
# In short: as §1
# surinam grass = test: Test B pre/postemergence surinam grass; format: in vivo, Brachiaria decumbens
# In short: as §1
# bamyardgrass = test: Test B flood test barnyardgrass; format: in vivo, Echinochloa crus-galli
# In short: as §2
# [1] = Postemergence, Rate 62 g/ha, scale 0 to 10, 0 is no effect, 10 is complete control
# [2] = Postemergence, Rate 250 g/ha, scale 0 to 10, 0 no effect, 10 complete control
# [3] = Preemergence, Rate 62 g/ha, scale 0 to 10, 0 is no effect, 10 is complete control
# [4] = Preemergence, Rate 125 g/ha, scale 0 to 10 (0 no effect, 10 complete control)
# [5] = Preemergence, Rate 250 g/ha, scale of 0 to 10 where 0 is no effect and 10 is complete control
# [6] = Preemergence, Rate 500 g/ha, scale 0 (no effect) to 10 (complete control)
# [7] = Rate 125 g/ha, Postemergence, scale 0 to 10, 0 no effect, 10 complete control
# [8] = Rate 500 g/ha, Postemergence, scale 0 to 10, 0 no effect, 10 complete control
# [9] = Rate 62 g/ha, scale 0 to 10, 0 is no effect, 10 is complete control
# [10] = Rate 250 g/ha, scale 0 to 10, 0 no effect, 10 complete control
# [11] = Rate 125 g/ha, scale 0 to 10 (0 no effect, 10 complete control)
# [12] = Rate 250 g/ha, scale of 0 to 10 where 0 is no effect and 10 is complete control
# [13] = Rate 125 g/ha, scale 0 to 10, 0 no effect, 10 complete control
# [14] = Rate 500 g/ha, scale 0 to 10, 0 no effect, 10 complete control
# [15] = Rate 125 g/ha, Postemergence section (flood test species), scale 0 to 10, 0 no effect, 10 complete control
# [16] = Rate 500 g/ha, listed under Postemergence (flood test species), scale 0 to 10, 0 no effect, 10 complete control
# [17] = flood test, listed under Postemergence, Rate 250 g/ha, scale 0 to 10, 0 no effect, 10 complete control
smiles,measurement,setting,value
CCc1cccc(C)c1-n1c(=O)on(C(=O)N(c2ccc(F)cc2)C(C)C)c1=O [Compound 52],Wheat plant response rating,wheat; [1],0
same,Wheat plant response rating,wheat; [2],0
same,"Plant response rating, Wheat",wheat; [3],0
same,"Plant response rating, Wheat",wheat; [4],0
same,"Plant response rating, Wheat",wheat; [5],0
same,Wheat plant response rating,wheat; [6],0
same,Wheat plant response rating,wheat; [7],0
same,Wheat plant response rating,wheat; [8],0
same,Morningglory plant response rating,morningglory; [9],1
same,Morningglory plant response rating,morningglory; [10],1
same,"Plant response rating, Morningglory",morningglory; [9],0
same,"Plant response rating, Morningglory",morningglory; [11],0
same,"Plant response rating, Morningglory",morningglory; [12],0
same,Morningglory plant response rating,morningglory; [13],1
same,Morningglory plant response rating,morningglory; [14],1
same,Redroot pigweed plant response rating,pigweed; [1],0
same,Redroot pigweed plant response rating,pigweed; [2],0
same,"Plant response rating, Redroot pigweed",pigweed; [3],0
same,"Plant response rating, Redroot pigweed",pigweed; [4],0
same,"Plant response rating, Redroot pigweed",pigweed; [5],1
same,Redroot pigweed plant response rating,pigweed; [6],6
same,Redroot pigweed plant response rating,pigweed; [7],0
same,Redroot pigweed plant response rating,pigweed; [8],0
same,Nutsedge plant response rating,purple nutsedge; [1],0
same,Nutsedge plant response rating,purple nutsedge; [2],0
same,"Plant response rating, Nutsedge",purple nutsedge; [3],0
same,"Plant response rating, Nutsedge",purple nutsedge; [4],0
same,"Plant response rating, Nutsedge",purple nutsedge; [5],0
same,Nutsedge plant response rating,purple nutsedge; [6],0
same,Nutsedge plant response rating,purple nutsedge; [7],0
same,Nutsedge plant response rating,purple nutsedge; [8],0
same,Rape plant response rating,rape; [1],0
same,Rape plant response rating,rape; [2],0
same,"Plant response rating, Rape",rape; [3],0
same,"Plant response rating, Rape",rape; [4],0
same,"Plant response rating, Rape",rape; [5],0
same,Rape plant response rating,rape; [6],0
same,Rape plant response rating,rape; [7],0
same,Rape plant response rating,rape; [8],0
same,Cocklebur plant response rating,cocklebur; [9],0
same,Cocklebur plant response rating,cocklebur; [10],0
same,"Plant response rating, Cocklebur",cocklebur; [9],0
same,"Plant response rating, Cocklebur",cocklebur; [11],0
same,"Plant response rating, Cocklebur",cocklebur; [12],0
same,Cocklebur plant response rating,cocklebur; [13],0
same,Cocklebur plant response rating,cocklebur; [14],0
same,Ducksalad plant response rating,duck salad; [1],0
same,Ducksalad plant response rating,duck salad; [15],0
same,Ducksalad plant response rating,duck salad; [16],0
same,Ducksalad plant response rating,duck salad; [17],0
same,Sugarbeets plant response rating,sugar beet; [1],0
same,Sugarbeets plant response rating,sugar beet; [2],0
same,"Plant response rating, Sugarbeets",sugar beet; [3],0
same,"Plant response rating, Sugarbeets",sugar beet; [4],0
same,"Plant response rating, Sugarbeets",sugar beet; [5],0
same,Sugarbeets plant response rating,sugar beet; [6],0
same,Sugarbeets plant response rating,sugar beet; [7],0
same,Sugarbeets plant response rating,sugar beet; [8],0
same,Wild oats plant response rating,wild oat; [1],0
same,Wild oats plant response rating,wild oat; [2],1
same,"Plant response rating, Wild oats",wild oat; [4],0
same,"Plant response rating, Wild oats",wild oat; [5],0
same,Wild oats plant response rating,wild oat; [6],1
same,Wild oats plant response rating,wild oat; [7],0
same,Wild oats plant response rating,wild oat; [8],1
same,S. Flatsedge plant response rating,smallflower flatsedge; [1],0
same,S. Flatsedge plant response rating,smallflower flatsedge; [15],0
same,S. Flatsedge plant response rating,smallflower flatsedge; [16],0
same,S. Flatsedge plant response rating,smallflower flatsedge; [17],0
same,Soybean plant response rating,soybean; [1],2
same,Soybean plant response rating,soybean; [2],2
same,"Plant response rating, Soybean",soybean; [3],0
same,"Plant response rating, Soybean",soybean; [4],0
same,"Plant response rating, Soybean",soybean; [5],0
same,Soybean plant response rating,soybean; [6],0
same,Soybean plant response rating,soybean; [7],2
same,Soybean plant response rating,soybean; [8],2
same,Bedstraw plant response rating,bedstraw; [9],1
same,Bedstraw plant response rating,bedstraw; [10],8
same,"Plant response rating, Bedstraw",bedstraw; [9],0
same,"Plant response rating, Bedstraw",bedstraw; [11],0
same,"Plant response rating, Bedstraw",bedstraw; [12],0
same,Bedstraw plant response rating,bedstraw; [13],5
same,Blackgrass plant response rating,blackgrass; [1],0
same,Blackgrass plant response rating,blackgrass; [2],0
same,"Plant response rating, Blackgrass",blackgrass; [3],0
same,"Plant response rating, Blackgrass",blackgrass; [4],0
same,"Plant response rating, Blackgrass",blackgrass; [5],3
same,Blackgrass plant response rating,blackgrass; [6],4
same,Blackgrass plant response rating,blackgrass; [7],0
same,Blackgrass plant response rating,blackgrass; [8],0
same,Giant foxtail plant response rating,giant foxtail; [1],0
same,Giant foxtail plant response rating,giant foxtail; [2],3
same,"Plant response rating, Giant foxtail",giant foxtail; [3],3
same,"Plant response rating, Giant foxtail",giant foxtail; [4],5
same,"Plant response rating, Giant foxtail",giant foxtail; [5],7
same,Giant foxtail plant response rating,giant foxtail; [6],10
same,Giant foxtail plant response rating,giant foxtail; [7],3
same,Giant foxtail plant response rating,giant foxtail; [8],4
same,B. signalgrass plant response rating,surinam grass; [1],0
same,B. signalgrass plant response rating,surinam grass; [2],0
same,"Plant response rating, B. signalgrass",surinam grass; [3],0
same,"Plant response rating, B. signalgrass",surinam grass; [4],0
same,"Plant response rating, B. signalgrass",surinam grass; [5],0
same,B. signalgrass plant response rating,surinam grass; [6],6
same,B. signalgrass plant response rating,surinam grass; [7],0
same,B. signalgrass plant response rating,"surinam grass; Rate 500 g/ha, Postemergence, scale of 0 to 10 where 0 is no effect and 10 is complete control",1
same,Barnyardgrass plant response rating,bamyardgrass; [1],0
same,Barnyardgrass plant response rating,bamyardgrass; [15],0
same,Barnyardgrass plant response rating,bamyardgrass; [16],0
same,Barnyardgrass plant response rating,bamyardgrass; [17],0
